Experimental data: US6384080B1, “Anthranilic acid derivatives as inhibitors of the cGMP-phosphodiesterase” (Fujisawa Pharmaceutical Co., Ltd., priority 1998, dated 2002)

What was measured:
[1] = test system: rabbit corpora cavernosa; experiment: Relaxation elicited by electrical field stimulation in rabbit corpora cavernosa; settings: at 5×10^−8 M
Description: (b) Effect of test compounds on the relaxation elicited by electrical field stimulation in rabbit corpora cavernosa.
The rabbit erectile tissue strip prepared according to the method described by Italiano et al. (Pharmacological Research, 30, No 4, 1994) was placed 25 ml organ bath containing Krebs-Ringer solution. The bath was maintained at 37° C. and bubbled with 95% O2 and 5% CO2. The solution also contained atropine (1 μM) and guanethidine (50 μM). The erectile tissue strip was stretched with a resting force of 0.25 g, and isometric contraction were recorded via force development transducer on a recorder. The bipolar platinum electrode connected to the electric stimulator was placed around the strip.
The strip was equilibrated in the Krebs-Ringer solution for about 60 minutes and preconstricted by 0.1 mM norepinephrine to ascertain the responsibility of each preparation. The strip was washed several times, and then constricted by 0.1 mM norepinephrine. After getting stable contractile response to norepinephrine, the first electrical field stimulation (1 to 30 Hz, 20V, 0.5 msec duration, 90 sec interval) was delivered. 30 minutes after adding the tested compound, the second electrical field stimulation was delivered. […]

[2] = test system: Male beagle; experiment: Duration of detumescence (T75) after cavernous nerve electrical stimulation in anesthetized beagle; type: in vivo; settings: 0.1 mg/kg, i.v., cavernous nerve stimulation 7 Hz, 10 V, T75 = time from cessation of stimulation to 75% reduction of intracavernous pressure
Description: (c) Male beagle weighing 8.0-12.0 kg were anesthetized with pentobarbital sodium (35 mg/kg, i.v.). After tracheotomy, the animal was artificially ventilated using a volume-cycled ventilator. The femoral artery was cannulated for continuous blood pressure and heart rate monitoring. The femoral vein was cannulated for maintenance of anesthesia and administration of tested compound.
Either the left or right cavernous nerve was exposed posterolaterally to the prostate and a cuff electrode was placed around the nerve for electrical stimulation. A 21-gauge butterfly needle was placed in the corpus cavernousum and connected to a pressure transducer for intracavernous pressure. After a period of stabilization of all parameters, erection was induced by cavernous nerve electrically stimulation (7 Hz, 10 V) and the following was measured: the duration of detumescence (time (T75) from cessation of stimulation to 75% reduction of intracavernous pressure). The test compounds, i.e., N-(3,4-dimethoxybenzyl)-2-(cis-4-hydroxycyclohexylamino)-5-nitrobenzamide and (R)-N-(3,4-dimethoxybenzyl)-2-(2-hydroxy-1-methyl-ethylamino)-5-nitrobenzamide were each dissolved in 50% PEG400.

[3] = test system: SD rat; type: in vivo; settings: 32 mg/kg once a day for 14 consecutive days
Description: Toxicities of Compound (I)
Test on the toxicity by repetitive oral administration of the compounds, i.e., N-(3,4-dimethoxybenzyl)-2-(cis-4-hydroxycyclohexylamino)-5-nitrobenzamide and (R)-N-(3,4-dimethoxybenzyl)-2-(2-hydroxy-1-methylethylamino)-5-nitrobenzamide which were selected as representative compounds of this invention, in SD rat was conducted.

[4] = test system: isolated rat corpora cavernosa; experiment: Nitroprusside-induced relaxation in isolated rat corpora cavernosa; design: species or system SD rat; settings: in the presence of the test compound (5×10^−8 M); strip constricted by 0.1 mM norepinephrine; control preparation 20%
Description: (a) Effect of Test Compound on Nitroprusside or Ach-induced Relaxation in Isolated Rat Corpora Cavernosa.
Male SD rats were anesthetized with sodium pentobarbital 50 mg/kg intraperitoneally, and the corpora cavernosa was excised. The tunica albuginea was dissected according to the methods described by Italiano et al. (Pharmacological Research, 30, No. 4, 1994) and used for in vitro pharmacological study. The erectile tissue strip was placed in a 25 ml organ bath containing Krebs-Ringer solution. The bath was maintained at 37° C. and bubbled with 95% O2 and 5% CO2. The strip was stretched with a resting force of 0.25 g, and isometric contraction were recorded via force development transducer on a recorder.
The strip was equilibrated in the Krebs-Ringer solution for about 60 minutes, and preconstructed by 0.1 mM norepinephrine to ascertain the responsibility of each preparation. The strip was washed several times, and then constricted by 0.1 mM norepinephrine. After getting stable constrictile response to norepinephrine, the first dose-response curve for sodium nitroprusside or Ach(acetylcholine) was obtained. After washing a few times for 60 minutes, the strip was constricted by norepinephrine again, and the second dose-response curve for sodium nitroprusside or Ach was obtained. […]

SMILES | relaxation of corpora cavernosa elicited by electrical field stimulation (effect in words) [1] | mean of prolongation of T75 [2] | The dead (toxicity by repetitive oral administration) [3] | Relaxant response elicited by 10 μM nitroprusside [4]
COc1ccc(CNC(=O)c2cc([N+](=O)[O-])ccc2N[C@H]2CC[C@@H](O)CC2)cc1OC [N-(3,4-Dimethoxybenzyl)-2-(cis-4-hydroxycyclohexylamino)-5-nitrobenzamide] | potentiated | 52 s | could not be observed | –
COc1ccc(CNC(=O)c2cc([N+](=O)[O-])ccc2N[C@H](C)CO)cc1OC [(R)-N-(3,4-Dimethoxybenzyl)-2-(2-hydroxy-(1-methylethylamino)-5-nitrobenzamide] | potentiated | 44 s | could not be observed | 32%
